Activity calls are given as the source filed them.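 How the source made its calls: active means maximal percent inhibition of the deubiquitinase OTUD3 of at least 30% across the tested doses; inactive means the rest.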
These molecules were tested against OTU domain-containing protein 3 (Homo sapiens) (UniProt Q5T2D3) (assay: Validation of screening hits, potency titration, in vitro enzymatic, OTU domain-containing protein 3 DUB inhibitors (AID 1645868)). Conditions: purified OTUD3, ubiquitin-rhodamine cleavage fluorescence, 2 h.
Sequence of OTU domain-containing protein 3 (Homo sapiens) (Q5T2D3 whole entry, looked up, the tested form may be a part): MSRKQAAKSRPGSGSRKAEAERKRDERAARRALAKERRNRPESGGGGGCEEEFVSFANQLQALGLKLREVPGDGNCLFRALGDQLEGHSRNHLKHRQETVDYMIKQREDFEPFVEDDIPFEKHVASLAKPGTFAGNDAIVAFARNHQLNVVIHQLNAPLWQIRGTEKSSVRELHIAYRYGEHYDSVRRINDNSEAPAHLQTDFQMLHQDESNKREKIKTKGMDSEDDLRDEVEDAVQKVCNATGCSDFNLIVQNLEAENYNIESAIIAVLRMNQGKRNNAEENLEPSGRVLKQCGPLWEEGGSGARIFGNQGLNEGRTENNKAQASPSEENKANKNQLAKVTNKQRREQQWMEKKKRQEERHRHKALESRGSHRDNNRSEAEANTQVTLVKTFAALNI

| IC50 | SMILES |
| --- | --- |
| 31.3 µM | Cc1ccc(NC(=O)Cc2nnc3c(-c4nc(C5CC5)no4)cccn23)cc1 |
| 30.4 µM | Cc1ccc(C2c3c(-c4ccccc4O)n[nH]c3C(=O)N2Cc2ccco2)cc1 (centres undefined) |
| > 50 µM (inactive) | COC(=O)c1cc(C)sc1NC(=O)c1cccc(OC)c1OC |
| > 50 µM (inactive) | CCCOc1ccc(C(=O)Nc2ccc(S(=O)(=O)Nc3cc(C)nc(C)n3)cc2)cc1 |
| > 50 µM (inactive) | Cc1ccc(Cl)cc1NC(=O)COC(=O)c1ccc2ccccc2n1 |
| > 50 µM (inactive) | COc1ccccc1OCCNC(=O)c1cc(C2CC2)nc2c1cnn2C(C)C |
| 16.4 µM | COc1cc(NC(=O)Cc2ccccc2)ccc1NC(=O)c1cc2ccccc2o1 |
| > 50 µM (inactive) | CS(=O)(=O)N1CCCN(c2nc3cc(Cl)ccc3n3cccc23)CC1 |
| > 50 µM (inactive) | COc1cccc(NC(=O)C2CCC(CNS(=O)(=O)c3ccc4c(c3)C(C)(C)C(=O)N4C)CC2)c1 (centres undefined) |
| 34.7 µM | O=C(Nc1ccc(F)cc1F)c1csc(-c2ccccc2)n1 |
| > 50 µM (inactive) | CCn1c(=O)c(=O)[nH]c2cc(C(=O)Nc3cccc(-c4csc(C)n4)c3)ccc21 |
| 25.2 µM | O=C(CSc1ccc(-c2cccc([N+](=O)[O-])c2)nn1)Nc1cccc(F)c1 |
| 21.3 µM | CCc1ccc(-n2c(=O)c3ccccc3n(CC(=O)NCCC3=CCCCC3)c2=O)cc1 |
| > 50 µM (inactive) | COc1ccc(CNc2nn3c(-c4cncc(OC)c4)cnc3s2)cc1 |
| > 50 µM (inactive) | Cc1cc2nc(Oc3cccc(Cl)c3)c3ccccc3n2n1 |
| > 50 µM (inactive) | CCn1c(=O)c2ccccc2n(Cc2nc(-c3ccccc3OC)no2)c1=O |
| > 50 µM (inactive) | C=C1Nc2ccccc2C(=O)N1c1cccc(NC(=O)c2ccc(C)c(C)c2)c1 |
| 22 µM | O=C(CSc1nc2cc(C(F)(F)F)ccc2s1)NCC(=O)c1ccccc1 |
| 29.9 µM | COc1ccc(CCNC(=O)CCCCn2c(=O)c3ccccc3n(Cc3cccc(Cl)c3)c2=O)cc1OC |
| 5.56 µM | COc1cc(NC(=O)Cn2nc(-c3ccc(F)cc3)ccc2=O)ccc1-n1cnnn1 |
| > 50 µM (inactive) | N#Cc1ccc(Cc2ncc(C(F)(F)F)cc2Cl)s1 |
| 32.8 µM | O=C(Nc1cc(Cl)cc(Cl)c1)c1csnn1 |
| > 50 µM (inactive) | COc1ccc(NC(=O)COc2cc(CSc3ccccc3)ncc2OC)cc1 |
| > 50 µM (inactive) | O=C(c1ccc(N2CCc3ccccc32)nn1)N1CCc2ccccc21 |

| IC50 | SMILES |
| --- | --- |
| 18.7 µM | O=C1CC(c2cc3c(cc2Br)OCO3)c2cc3c(cc2N1)OCCO3 (centres undefined) |
| > 50 µM (inactive) | CCOc1ccc(S(=O)(=O)Nc2ccc[nH]c2=O)cc1 |
| > 50 µM (inactive) | CCOc1ccc(CCNC(=O)c2cccc3c2C(=O)N(CCOC)C3)cc1OCC |
| > 50 µM (inactive) | CS(=O)(=O)NC1CCCN(C(=O)Nc2cccc3ccccc23)C1 (centres undefined) |
| > 50 µM (inactive) | Cc1cc(=O)n(C)c2c(O)c3c(cc12)c(C)cc(=O)n3C |
| > 50 µM (inactive) | CN(C)C(=O)CSc1nnc(-c2cccc(Cl)c2)n1-c1ccc(Cl)c(C(F)(F)F)c1 |
| 15.4 µM | CCOc1ccc(NC(=O)Cn2c(=O)n(CCC(=O)NCc3ccccc3OC)c(=O)c3ccccc32)cc1 |
| > 50 µM (inactive) | COc1ccc2c(c1)c(N1CCCC1=O)c(C(=O)NCc1cccc(OC)c1OC)n2C |
| > 50 µM (inactive) | Nc1c(-c2ccc(Cl)cc2)cnc2nc(Sc3ncc(C(F)(F)F)cc3Cl)nn12 |
| > 50 µM (inactive) | Fc1ccc(Cn2ccc(-c3cnc(-c4ccccc4)s3)n2)cc1 |
| > 50 µM (inactive) | Cc1ccc(Cn2nnc(-c3ccccc3Cl)n2)cc1 |
| > 50 µM (inactive) | NC(=O)c1nc(-c2cccnc2)nc2c1[nH]c(=O)n2-c1ccc2c(c1)OCO2 |
| 17 µM | O=C(CCCCn1c(=O)c2ccccc2n(Cc2ccccc2F)c1=O)NCCc1ccccc1 |
| > 50 µM (inactive) | Fc1ccccc1N1CCN(c2ncc3c(n2)CCN(Cc2ccccn2)C3)CC1 |
| > 50 µM (inactive) | COCCn1ccc2nc(C)c(C(=O)Nc3ccc4c(c3)OCCO4)cc2c1=O |
| 31.6 µM | CC1CCc2sc(NC(=O)c3ccccc3Oc3ccccc3)c(C(N)=O)c2C1 (centres undefined) |
| > 50 µM (inactive) | CN(C)CCc1cc2c(c3c1ccc1ccccc13)OCO2 |
| > 50 µM (inactive) | Cc1c(OCC(=O)NCC(=O)N2CCC3(O)CCCCC3C2)ccc2c3c(c(=O)oc12)CCCC3 (centres undefined) |
| > 50 µM (inactive) | COc1ccccc1-c1ccc(CN2[C@@H](c3ccccc3)C[C@@H]3NC(=O)CCC[C@H]32)cc1 |
| > 50 µM (inactive) | CC(=O)c1ccc(NC(=O)C2CCN(c3cncnc3N3CCCC3)CC2)cc1 |
| 12.7 µM | COc1cc(Cn2cnc3c([nH]c4ccc(Br)cc43)c2=O)cc(OC)c1 |
| 18 µM | Cc1ccc(NC(=O)c2sc(=S)n(CCc3ccccc3)c2N)cc1 |
| 23.3 µM | CC(=O)N1CCc2cc(S(=O)(=O)NCCC(=O)Nc3cccc(C)c3C)ccc21 |
| 26 µM | Cc1ccc2cc(CNc3ccccc3)c(=O)n(CC(=O)Nc3ccccc3C)c2c1 |

| IC50 | SMILES |
| --- | --- |
| 28.1 µM | CC(C)c1cc2c(c(O)c1O)[C@@]13CCCC(C)(C)[C@@H]1C[C@@H]2OC3=O |
| > 50 µM (inactive) | CCN1C(=O)COc2ccc(NC(=O)c3ccc(OCc4nonc4C)cc3)cc21 |
| 0.33 µM | Cn1c2ccccc2c(=O)c2c(=O)n(Cc3ccccc3)c(-c3ccccc3F)nc21 |
| > 50 µM (inactive) | Cc1nc(-c2ccc(C(=O)NCc3ccc(F)cc3)cc2)cs1 |
| > 50 µM (inactive) | CNC(=O)c1cc2nc(N(C)C)n(-c3ccc(F)cc3)c2s1 |
| 29.6 µM | O=C(CSc1nnc(CNC(=O)c2ccccc2F)o1)Nc1ccc(OC(F)(F)F)cc1 |
| > 50 µM (inactive) | O=C(COC(=O)C1CCCN1C(=O)C12CC3CC(CC(C3)C1)C2)c1ccc(Cl)cc1 (centres undefined) |
| > 50 µM (inactive) | CC1=C(c2ccc(F)cc2)S(=O)(=O)NC1=NCC(=O)Nc1ccc(F)cc1 |
| > 50 µM (inactive) | O=C(Nc1ccccc1)c1nc2c(s1)CCN(C(=O)c1ccccc1)CC2 |
| > 50 µM (inactive) | C=C(NC(=O)C(=C)NC(=O)c1csc(C2=N[C@@H]3c4csc(n4)[C@H]4NC(=O)c5csc(n5)[C@H]([C@](C)(O)[C@@H](C)O)NC(=O)C5CSC(=N5)/C(=C/C)NC(=O)C([C@@H](C)O)NC(=O)c5csc(n5)[C@]3(CC2)NC(=O)[C@H](C)NC(=O)C(=C)NC(=O)[C@H](C)NC(=O)C([C@@H](C)CC)NC2C=Cc3c(C(C)O)cc(nc3[C@H]2O)C(=O)OC4C)n1)C(N)=O (some centres undefined) |
| > 50 µM (inactive) | CC(CCc1ccccc1)NC(=O)C(=O)c1cn(CC(=O)N2CCOCC2)c2ccccc12 (centres undefined) |
| 30.8 µM | Cc1cc2c(cc1C)NC(CC(=O)Nc1ccc(O)cc1)C(=O)N2 (centres undefined) |
| 2.58 µM | COc1ccc(Cl)cc1NC(=O)c1cc(-c2ccccn2)n[nH]1 |
| > 50 µM (inactive) | O=C(NCc1ccc2c(c1)OCO2)c1ccc(C2SCC(=O)N2Cc2ccco2)cc1 (centres undefined) |
| > 50 µM (inactive) | Cc1ccc(C)c(S(=O)(=O)N2CCN(c3ccc4nnc(-c5ccco5)n4n3)CC2)c1 |
| > 50 µM (inactive) | CC(C)(C)C(=O)C1C2C(=O)N(c3ccc4c(c3)OCO4)C(=O)C2C2c3ccccc3C=CN12 (centres undefined) |
| > 50 µM (inactive) | COCCCNC(=O)Cn1c(=O)n(Cc2ccc(C(=O)NCc3ccccc3OC)cc2)c(=O)c2ccccc21 |
| > 50 µM (inactive) | CCn1cc(-c2nc(-c3ccccn3)no2)c(=O)c2cc(F)ccc21 |
| > 50 µM (inactive) | CC(=O)c1ccccc1NC(=O)COc1ccc(-c2ccc(C#N)cc2)cc1 |
| 49.2 µM | COc1cccc(NC(=O)Nc2nccn(-c3ccc(F)cc3)c2=O)c1 |
| 9.18 µM | Cc1ccc(Cn2c(=O)c3ccccc3n3c(CCC(=O)N4CCN(c5ccccn5)CC4)nnc23)cc1 |
| > 50 µM (inactive) | Cc1c(Cl)cccc1NC(=O)Cn1c(=O)c2ccccc2n2nncc12 |
| > 50 µM (inactive) | Cc1ccc(Cn2nnc(-c3noc(-c4ccc[nH]4)n3)c2C)cc1 |
| > 50 µM (inactive) | CN(C(=O)CSc1nnc(-c2cc3ccccc3n2C)o1)c1ccccc1 |

| IC50 | SMILES |
| --- | --- |
| 29.2 µM | CCc1ccc(NC(=O)Cc2nnc3cc(-c4nc(C)no4)ccn23)cc1 |
| > 50 µM (inactive) | CN(C)c1ccc(CCN2CCc3nc4cccnc4cc3C2)cc1 |
| > 50 µM (inactive) | Nc1ccccc1SC(CC(=O)c1ccc(Cl)cc1)c1ccsc1 (centres undefined) |
| 6.66 µM | COc1ccc(-c2cc3nc([C@H](C)NC(=O)Cc4ccccc4C)nn3cn2)cc1 |
| 36 µM | CCCC(O)CCCCCCCc1cc(O)cc(O)c1C(=O)OC(CCC)CCCCCCCc1cc(O)cc(O)c1 (centres undefined) |
| 19.5 µM | COc1ccc(S(=O)(=O)N2CCc3ccccc32)cc1C(=O)Nc1ccc2[nH]c(=O)[nH]c2c1 |
| > 50 µM (inactive) | NC(=O)c1nc(-c2cccc(F)c2)nc2c1[nH]c(=O)n2C1CCCCC1 |
| 37.2 µM | CCOc1ccc(NS(=O)(=O)c2ccc(NC(=O)Nc3ccccc3)cc2)cc1 |
| > 50 µM (inactive) | COc1ccc(C(=O)Nc2cc(-c3ccccn3)no2)cn1 |
| 44.7 µM | COc1ccccc1CNC(=O)Nc1cccc2ccccc12 |
| 30.4 µM | Cc1cc(N2CCC(NC(=O)NCc3ccc(F)cc3)C2=O)ccc1F (centres undefined) |
| > 50 µM (inactive) | CC(=O)c1ccc(NC(=O)/C(=C/c2ccco2)n2nnnc2-c2ccccc2)cc1 |
| 37.9 µM | Cc1cc(NC(=O)c2[nH]nc3c2CCc2ccccc2-3)no1 |
| > 50 µM (inactive) | Cc1c(C(=O)Nc2ccc(-c3nnc4n3CCCCC4)cc2)oc2c1ccc1ccccc12 |
| > 50 µM (inactive) | NS(=O)(=O)c1cccc(NS(=O)(=O)c2ccc(/C=C/C(=O)OCC(=O)c3ccc(Br)cc3)cc2)c1 |
| > 50 µM (inactive) | NC(=O)c1ccc(NC(=O)Cc2cc(-c3ccc(Cl)cc3)on2)cc1 |
| > 50 µM (inactive) | COc1cccc(CC(=O)Nc2cc(F)c3nc(N4CCOCC4)ccc3c2)c1 |
| > 50 µM (inactive) | Cc1cnnn1-c1ccc(C(=O)Nc2ccc(Cl)cc2)cc1 |
| > 50 µM (inactive) | COc1ccc(NCc2cc(=O)n3[nH]c(NCc4ccc(C(C)C)cc4)nc3n2)cc1 |
| > 50 µM (inactive) | Cc1cc(C(=O)CSc2nc3ccccc3[nH]2)c(C)n1Cc1ccco1 |
| > 50 µM (inactive) | Cc1cc(C(=O)N2CCOC3(CC=CCN(CCc4ccccc4)C3=O)C2)n2nccc2n1 (centres undefined) |
| > 50 µM (inactive) | COc1cccc(NC(=O)c2ccc(-c3csc(C)n3)cc2)c1 |
